System: AP4B1-KO SH-SY5Y cells
Experiment: Testing of compounds for AP-4 deficiency: ATG9A translocation in AP4B1-KO SH-SY5Y cells
Settings: 24 h, std error in own column
Protocol: SH-SY5Y cell culture. […] Media changes were done every 2-3 days and drugs were administered 24 h before fixation.
Immunocytochemistry. […] SH-SY5Y cells were fixed using 4% PFA, permeabilized with 0.1% saponin in PBS and blocked in 1% BSA/0.01% saponin (blocking solution) in PBS. Primary antibody (diluted in blocking solution) was added for 1 h at room temperature. […] Plates were then gently washed three times with PBS and protected from light.
High-content imaging and automated image analysis. […] Up to 36 fields were acquired in a 6×6 format (96-well plate) using a 40×S Plan Fluor objective (NA 0.60 m, WB 3.6-2.8 mm). Image analysis was performed using a customized image analysis pipeline in MetaXpress (Molecular Devices): Briefly, cells were identified based on the presence of DAPI signal inside a TUBB3-positive cell body. […] ATG9A fluorescence intensity (F.U.) was measured in both compartments in each cell, and the ATG9A ratio was calculated by dividing the ATG9A fluorescence intensity inside the TGN by the ATG9A fluorescence intensity in the remaining cell body:
Z′-factor robust values and strictly standardized median difference (SSMD) were calculated for each plate and only plates that met the predefined quality metrics of a Z′-factor robust 0.3 and SSMD 3 were included in analyses.

EC50 (z atg9a ratio) | Compound
4.418 | Oc1cccc2sc(N3CCc4[nH]cnc4C3)nc12 [Compound 10]
1.185 | Cc1cccc2sc(N3CCc4[nH]cnc4C3)nc12 [Compound 17]

Reference: US20260306465A1, “COMPOUNDS FOR TREATING HEREDITARY SPASTIC PARAPLEGIA” (The Children's Medical Center Corporation, priority 2023, published 2026)
